From patent US10759796B2, “CXCR4 inhibitors and uses thereof” (X4 Pharmaceuticals, Inc., priority 2016, dated 2020)

Legend:
[1] = biological target: Jurkat cells expressing CXCR4 (Homo sapiens (Human), UniProt P61073); assay: Chemokine (CXCL12-AF647) binding inhibition assay; conditions: CXCL12-AF647 25 ng/mL, read-out: IC50 CXCL-12 binding Jurkat
Method: Chemokine (CXCL12-AF647) Binding Inhibition Assay
Jurkat cells expressing CXCR4 were washed once with assay buffer (Hanks' balanced salt solution with 20 mM HEPES buffer and 0.2% bovine serum albumin, pH 7.4) and then incubated for 15 min at room temperature with the test compounds diluted in assay buffer at dose-dependent concentrations. Subsequently, CXCL12-AF647 (25 ng/mL) was added to the compound-incubated cells. The cells were incubated for 30 min at room temperature. Thereafter, the cells were washed twice in assay buffer, fixed in 1% paraformaldehyde in PBS, and analyzed on the FL4 channel of a FACSCalibur flow cytometer equipped with a 635-nm red diode laser (Becton Dickinson, San Jose, Calif., USA).
The percentages of inhibition of CXCL12-AF647 binding were calculated according to the formula: [1−((MFI−MFINC)/(MFIPC−MFINC))]×100 where MFI is the mean fluorescence intensity of the cells incubated with CXCL12-AF647 in the presence of the inhibitor, MFINC is the mean fluorescence intensity measured in the negative control (i.e., autofluorescence of unlabeled cells), and MFIPC is the mean fluorescence intensity of the positive control (i.e., cells exposed to CXCL12-AF647 alone).

in vitro = conditions: human, Caco-2, pH 7.4
Method: Example 28: Caco-2 Permeability Assay
The goal of this assay was to evaluate the intestinal absorption potential of drug candidates using Caco-2 cell lines.
1. Prewarm Prewarm HBSS Buffer in 37° C. water bath
2. Sonicate Take compounds from −20° C., sonicate for a few minutes (no less than 1 minute)
HBSS buffer with 0.3% DMSO and 5 μM LY: add 150 μL DMSO and 50 μL LY (5 mM) into 50 ml HBSS buffer (pH 7.4).
HBSS buffer with 0.1% DMSO and 5 μM LY: add 50 μL DMSO and 50 μL LY (5 mM) into 50 mL HBSS buffer (pH 7.4).
HBSS buffer with 0.3% DMSO: add 150 μL DMSO into 50 ml HBSS buffer (pH 7.4).
HBSS buffer with 0.1% DMSO: add 50 μL DMSO into 50 ml HBSS buffer (pH 7.4).
Receiver Solution Buffer:
Prepare HBSS buffer with 0.4% DMSO: add 200 μL DMSO into 50 ml HBSS buffer (pH 7.4).
Prepare HBSS buffer with 0.4% DMSO and 5 μM LY: add 200 μL DMSO and 50 μL LY (5 mM) into 50 ml HBSS buffer (pH 7.4).
4. Measure TEER Take cell culture plate out of incubator, wash the cell monolayers with HBSS buffer, and then measure TEER values at Rm temperature. 5. Centrifuge Centrifuge the compound solution (from step 3) at 4000 rpm for 5 min before loading to donor chambers. 6. Dosing Add solution based on the volumes listed in the following table (make sure to take extra 100 μL of donor sample for TO as Backup).
7. Apical LYT0 Samples To determine LY concentration in the apical chember, take 100 μL sample from apical chambers into an opaque plate for LYT0. 8. Prewarm Prewarm apical and basolateral plates at 37° C. for about 5 min, then begin transport by placing the apical plate onto basolateral plate. 9. Incubation Keep the plates in incubator at 37° C. for 90 min. 10. Standard Curve Preparation
For 300 μM compound solution, add 6 μL of compound stock solution into 192 μL of MeOH/H2O (1:1).
Prepare Working Solution in MeOH/H2O (1:1)
3 μL (20×)+57 μL of 0.4% DMSO HBSS+60 μL ACN with IS (Osalmid or Imipramine) - - - 120 μL (1×)
11. Transport Termination Separate the apical plate from the basolateral plate after 90-min incubation.
12. Measure LY Take 100 μL samples from basolateral plate to an opaque plate as LYT90.
13. Measure LY concentrations for LYT0 and LYT90 by Fluorometer (at excitation of 485 nm/emission of 535 nm).
Study details: Test concentration 10 μM
Test systems: Caco-2/HBSS solution
Incubation conditions: 0, 90 min at 37° C.
Sample size: Duplicates (n=2)
Bioanalytical method: LC-MS/MS
For Millicell-24 Cell Culture Plates: surface area of the membrane=0.7 cm^2, VA=0.8 mL (A-to-B) or 0.4 mL (B-to-A)
1. Papp values were calculated based on calculated concentrations.
The compound numbers correspond to the compound numbers in Table 1.

[2] = biological target: CXCR-4 transfected U87 cell line (U87.CXCR4) (Homo sapiens (Human), UniProt P61073); assay: Intracellular CXCL-12-induced calcium mobilization assay (FLIPR); type: cell-based; conditions: U87.CXCR4 cells, CXCL-12 25-50 ng/mL; read-out: IC50 CXCL-12 Ca2+ flux U87.CXCR4+
Method: Example 28: REGA Screening Assay
Intracellular CXCL-12-Induced Calcium Mobilization Assay
Intracellular calcium mobilization induced by chemokines or chemokine-derived peptides were evaluated using a calcium responsive fluorescent probe and a FLIPR system. The CXCR-4 transfected U87 cell line (U87.CXCR4) cells were seeded in gelatine-coated black-wall 96-well plates at 20,000 cells per well and incubated for 12 hours. Cells were then loaded with the fluorescent calcium probe Fluo-2 acetoxymethyl at 4 μM final concentration in assay buffer (Hanks' balanced salt solution with 20 mM HEPES buffer and 0.2% bovine serum albumin, pH 7.4) for 45 min at 37° C. The intracellular calcium mobilization induced by the CXCL-12 (25-50 ng/mL) was then measured at 37° C. by monitoring the fluorescence as a function of time in all the wells simultaneously using a fluorometric imaging plate reader (FLIPR Tetra, Molecular Devices).

Chain of CXCR-4 transfected U87 cell line (U87.CXCR4) (P61073 whole entry): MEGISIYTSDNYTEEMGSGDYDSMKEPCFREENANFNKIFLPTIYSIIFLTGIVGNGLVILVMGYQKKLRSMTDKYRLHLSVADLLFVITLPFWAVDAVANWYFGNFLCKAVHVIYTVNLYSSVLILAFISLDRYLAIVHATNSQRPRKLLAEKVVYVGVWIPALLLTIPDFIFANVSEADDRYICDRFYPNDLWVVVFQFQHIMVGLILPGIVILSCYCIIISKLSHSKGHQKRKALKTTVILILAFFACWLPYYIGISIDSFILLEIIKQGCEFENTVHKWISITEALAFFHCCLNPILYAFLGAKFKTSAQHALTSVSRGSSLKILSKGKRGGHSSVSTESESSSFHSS
Chain of Jurkat cells expressing CXCR4 (P61073 whole entry): as above

| IC50 [1] [nM] | Papp A→B at 90 min, 10 μM (in vitro) [×10⁻⁶ cm/s] | Papp B→A at 90 min, 10 μM (in vitro) [×10⁻⁶ cm/s] | efflux ratio at 90 min, 10 μM (in vitro) | IC50 [2] [nM] | SMILES |
| --- | --- | --- | --- | --- | --- |
| 100 to 1000 | 10 to 30 | 10 to 30 | 0.1 to 10 | 100 to 1000 | Cc1cccnc1[C@@H]1CCC[C@H](c2cn3c(N4CCN(CC(F)(F)F)CC4)cccc3n2)N1C [Compound I-14] |
| 0.01 to 100 | 0.1 to 10 | 10 to 30 | 0.1 to 10 | 0.01 to 100 | Cc1cccnc1[C@@H]1CCC[C@H](c2cn3c(N4CCN(C(C)C)CC4)cccc3n2)N1C [Compound I-15] |
| 0.01 to 100 | 10 to 30 | 10 to 30 | 0.1 to 10 | 0.01 to 100 | Cc1cccnc1[C@@H]1CCC[C@H](c2cn3ccccc3n2)N1Cc1ccccc1-n1cccn1 [Compound I-16] |
| 0.01 to 100 | 0.1 to 10 | 0.1 to 10 | 0.1 to 10 | 0.01 to 100 | Cc1cccnc1[C@@H]1CCC[C@H](c2nc3cccc(N4CCN(C)CC4)n3c2Br)N1C [Compound I-17] |
| 0.01 to 100 | 0.1 to 10 | 10 to 30 | 0.1 to 10 | 0.01 to 100 | CCOCc1c([C@H]2CCC[C@@H](c3ncccc3C)N2C)nc2cccc(N3CCN(C)CC3)n12 [Compound I-21] |
| 0.01 to 100 | 0.1 to 10 | 10 to 30 | 0.1 to 10 | 100 to 1000 | Cc1cccnc1[C@@H]1CCC[C@H](c2nc3ccccn3c2CCCN2CCOCC2)N1C [Compound I-29] |
| 0.01 to 100 | 0.1 to 10 | 10 to 30 | 0.1 to 10 | 0.01 to 100 | CCN1[C@@H](c2cn3c(N4CCN(C(C)C)CC4)cccc3n2)CCC[C@H]1c1ncccc1C [Compound I-37] |
| 0.01 to 100 | 0.1 to 10 | > 30 | > 30 | 0.01 to 100 | Cc1cccnc1[C@@H]1CCC[C@H](c2nc3ccccn3c2CN2CCN(C)CC2)N1C [Compound I-38] |
| 0.01 to 100 | 0.1 to 10 | > 30 | 10 to 30 | 100 to 1000 | Cc1cccnc1[C@@H]1CCC[C@H](c2nc3ccccn3c2CN2CCN(C(C)C)CC2)N1C [Compound I-39] |
| 0.01 to 100 | 0.1 to 10 | > 30 | > 30 | 0.01 to 100 | CCN1CCN(Cc2c([C@H]3CCC[C@@H](c4ncccc4C)N3C)nc3ccccn23)CC1 [Compound I-40] |
| 100 to 1000 | 0.1 to 10 | 0.1 to 10 | 0.1 to 10 | ≥ 1000 | CCN1[C@@H](c2nc3cccc(N4CCN(C(C)C)CC4)n3c2Br)CCC[C@H]1c1ncccc1C [Compound I-45] |
| 0.01 to 100 | 0.1 to 10 | 0.1 to 10 | 0.1 to 10 | 0.01 to 100 | CCN1[C@@H](c2nc3cccc(N4CCN(C)CC4)n3c2Br)CCC[C@H]1c1ncccc1C [Compound I-46] |
| 0.01 to 100 | 0.1 to 10 | 0.1 to 10 | 0.1 to 10 | 0.01 to 100 | Cc1cccnc1[C@@H]1CCC[C@H](c2nc3cccc(N4CCN(C)CC4)n3c2Br)N1C(C)C [Compound I-47] |
| 0.01 to 100 | 0.1 to 10 | 10 to 30 | 0.1 to 10 | 100 to 1000 | Cc1cccnc1[C@@H]1CCC[C@H](c2nc3cccc(N4CCN(C)CC4)n3c2COC(C)C)N1C [Compound I-48] |
| 0.01 to 100 | 0.1 to 10 | 10 to 30 | 0.1 to 10 | 0.01 to 100 | Cc1cccnc1[C@@H]1CCC[C@H](c2cn3c(N4CCN(C)CC4)cccc3n2)N1CCCO [Compound I-49] |
| 0.01 to 100 | 0.1 to 10 | 10 to 30 | 10 to 30 | 0.01 to 100 | Cc1cccnc1[C@@H]1CCC[C@H](c2nc3cccc(N4CCN(C(C)C)CC4)n3c2CO)N1C [Compound I-50] |
| 0.01 to 100 | 0.1 to 10 | 10 to 30 | 0.1 to 10 | 100 to 1000 | CC(C)c1cccnc1[C@@H]1CCC[C@H](c2cn3c(N4CCN(C)CC4)cccc3n2)N1C [Compound I-51] |
| 100 to 1000 | 0.1 to 10 | > 30 | 10 to 30 | ≥ 1000 | Cc1cccnc1[C@@H]1CCC[C@H](c2cn3c(N4CCN(C5COC5)CC4)cccc3n2)N1C [Compound I-52] |
| 0.01 to 100 | 0.1 to 10 | 10 to 30 | 0.1 to 10 | 100 to 1000 | Cc1cccnc1[C@@H]1CCC[C@H](c2cn3c(N4CCN(C5CCOCC5)CC4)cccc3n2)N1C [Compound I-53] |
| 0.01 to 100 | 0.1 to 10 | 0.1 to 10 | > 30 | 0.01 to 100 | Cc1cccnc1[C@@H]1CCC[C@H](c2nc3ccccn3c2[C@@H](O)C2CCN(C)CC2)N1C [Compound I-54] |
| 0.01 to 100 | 0.1 to 10 | 0.1 to 10 | 0.1 to 10 | ≥ 1000 | Cc1cccnc1[C@@H]1CCC[C@H](c2nc3ccccn3c2[C@H](O)C2CCN(C)CC2)N1C [Compound I-55] |
| 0.01 to 100 | 0.1 to 10 | 10 to 30 | 0.1 to 10 | 0.01 to 100 | CCOCc1c([C@H]2CCC[C@@H](c3ncccc3C)N2C)nc2cccc(N3CCN(CC)CC3)n12 [Compound I-56] |
| 0.01 to 100 | 0.1 to 10 | 10 to 30 | 0.1 to 10 | 0.01 to 100 | CCOCc1c([C@H]2CCC[C@@H](c3ncccc3C)N2C)nc2cccc(N3CCN(C(C)C)CC3)n12 [Compound I-57] |
| 100 to 1000 | 10 to 30 | 10 to 30 | 0.1 to 10 | ≥ 1000 | CCOCc1c([C@H]2CCC[C@@H](c3ncccc3C)N2C)nc2cccc(N3CCN(C4CC4)CC3)n12 [Compound I-58] |
